Assay results taken from patent publication US20090156687A1, “Fab I and inhibition of apicomplexan parasites” (priority 2003, published 2009).
≈ marks a conversion by molar mass, not a printed value. Read-outs that look alike come from different tables or passages of the source.

Assays:
Cryptosporidia = type: cell-based
P. falciparum [1] = assay: microbe, parasite or virus in culture; type: cell-based, Plasmodium falciparum; details: for IC50: Plasmodium falciparum
Experimental: Because Fab I was located, the effects of triclosan on Plasmodium falciparum in vitro were investigated. For P. falciparum, the in vitro assays (Milhous et al., 1985; Oduola et al., 1988) were conducted using a modification of the semiautomated microdilution technique for assessing anti-folate antagonists. Instead of dialysed human plasma, 10% Albumax I (Gibco BRL), a serum-free substitute, was used to supplement the RPMI 1640 medium. All test compounds were dissolved in DMSO and diluted 400-fold into complete medium before serial dilution over 11 concentrations. Incubation was at 37° C. in 5% O2, 5% CO2 and 90% N2 for 48 h. [3H]-Hypoxanthine incorporation was measured as described previously (Milhous et al, 1985; Oduola et al, 1988).
P. falciparum. The in vitro assays (Oduala et al., 1988; Milhous et al., 1985) were conducted using a modification of the semiautomated microdilution technique for assessing antifolate antagonists. Instead of dialysed human plasma, 10% Albumaz I (Gibco BRL), a serum-free substitute, was used to supplement the RPMI 16-40 media. All test compounds were dissolved in DMSO and diluted 400-fold into complete media before serial dilution over 11 concentrations. Incubation was at 37° C. in 5% O2, 5% CO2 and 90% N2 for 48h, [3H]-Hypoxanthine incorporation was measured as described previously (13, 14).

T. gondii [2] = assay: T. gondii growth inhibition in human foreskin fibroblasts, 3H uracil uptake; type: cell-based, Toxoplasma gondii; details: for percentage inhibition of T. gondii uracil uptake: 125 nanograms per ml
Experimental: For T. gondii, growth inhibition was assessed over a 4-day period as described previously (Mack et al., 1984; Roberts et al., 1998; Zuther et al., 1999) using human foreskin fibroblasts (HFF) infected with 105 tachyzoites of the RH strain of T. gondii. The assays are based on microscopic visual inspection of infected and inhibitor treated cultures, and on quantitation of nucleic acid synthesis of the parasite by measuring uptake of 3H uracil into the parasite's nucleic acid. Uracil is not utilized by mammalian cells. Parasites present as tachyzoites (RH, Ptg., a clone derived from the Me49 strain), bradyzoites (Me49), and R5 mutants (mixed tachyzoites/bradyzoites of the Me49 strain that can be stage switched by culture conditions) (Bohne et al., 1993; Soete et al., 1994; Tomovo and Boothroyd, 1995; Weiss et al., 1992) are suitable for assay systems used to study effectsof inhibitors. Only the RH strain tachyzoites, cultured for up to 72 hours, had been used in previously reported assays. The use of Me49, Ptg, and R5 mutants are unique aspects of the methods used in these assays in this invention.
(§1) In these assays toxicity of a candidate inhibitor was assessed by its ability to prevent growth of human foreskin fibroblasts (HFF) after 4 days and after 8 days as measured by tritiated thymidine uptake and microscopic evaluation. Confluent monolayers of HFF were infected with tachyzoites and bradyzoites. Inhibitor was added one hour later. Non-toxic doses were used in parasite growth inhibition assays. Parasite growth was measured by ability to incorporate tritiated uracil during the last 48 hours of culture.
T. gondii in vitro. Growth inhibition was assessed over a 4-day period as described previously by Roberts et al., 1998; Zuther et al., 1999; and Mack et al., 1984, all incorporated by reference, using human foreskin fibroblasts (HFF) infected with 105 tachyzoites of the RH strain of T. gondii. Uptake of 3H uracil was determined. Evaluation of slides of preparations containing HFF, Toxoplasma and inhibitors were made.

P. berghei = P. berghei murine model; type: in vivo; details: subcutaneously, 3 or 38 mg/kg
[3] = system: human foreskin fibroblasts (HFF); assay: Toxicity to host cells, tritiated thymidine uptake and microscopic evaluation; type: cell-based; details: at concentrations effective against T. gondii
Experimental: as §1

P. falciparum FAB I = P. falciparum FAB I (Plasmodium falciparum, UniProt Q9BH77); assay: Fab I enzyme activity (NADH dependent); type: biochemical; details: purified P. falciparum FAB I
Chain of P. falciparum FAB I (Q9BH77 entry or part of it): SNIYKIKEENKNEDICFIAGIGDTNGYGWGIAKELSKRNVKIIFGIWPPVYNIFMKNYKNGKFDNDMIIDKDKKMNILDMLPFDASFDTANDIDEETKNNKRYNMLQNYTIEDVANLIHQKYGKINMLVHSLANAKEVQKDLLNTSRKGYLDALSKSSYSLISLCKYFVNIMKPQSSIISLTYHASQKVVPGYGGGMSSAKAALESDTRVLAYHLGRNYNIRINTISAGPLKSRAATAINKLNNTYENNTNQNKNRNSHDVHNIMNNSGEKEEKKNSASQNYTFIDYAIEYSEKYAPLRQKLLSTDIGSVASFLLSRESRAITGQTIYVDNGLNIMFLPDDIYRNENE

T. gondii [4] = details: literature (Waller et al., 1998; Zuther et al., 1999); cited from earlier work
EPSP synthase = EPSP synthase enzyme activity; type: biochemical, T. gondii; details: 1 mM
P. falciparum [5] = assay: In vitro synergy with cerulein; design: species or system Plasmodium falciparum; details: cerulein (inhibitor of Fab F, B, H) with triclosan
[6] = 48 h, read-out: IC 50 when cultured with P Falciparum, strain TM91C234, 48 h
[7] = 48 h, read-out: IC 50 when cultured with P Falciparum, strain W2 (chloroquine and pyrimethamine resistant), 48 h
[8] = TM90C2A, 48 h, read-out: IC 50 when cultured with P Falciparum, strain TM90C2A (chloroquine and mefloquine resistant, admission isolate), 48 h
[9] = TM90C2B, 48 h, read-out: IC 50 when cultured with P Falciparum, strain TM90C2B (recrudescent isolate, atovaquone resistant), 48 h

In the case of `Oc1cccc2cccnc12` [8-OH-quinoline], the “effect on Cryptosporidia” value (Cryptosporidia) was “inhibitory effects”.

Work on `OC(c1cc(C(F)(F)F)nc2c(C(F)(F)F)cccc12)C1CCCCN1` (stereo not shown) [Mefloquine] yielded an IC50 (P. falciparum [1]; 48 h, read-out: IC 50 when cultured with P Falciparum) of 0.0053 µg/mL (≈ 0.014 µM), an IC50 (P. falciparum [1]; [6]) of 0.0196 µg/mL (≈ 0.0518 µM) and an IC50 (P. falciparum [1]; [7]) of 0.002 µg/mL (≈ 0.00529 µM). For the same molecule, the IC50 (P. falciparum [1]; [8]) was 0.0245 µg/mL (≈ 0.0648 µM) and the IC50 (P. falciparum [1]; [9]) was 0.0193 µg/mL (≈ 0.051 µM).

In the case of `O=C(O)CC[N+](=O)[O-]` [3NPA], the “effect on Cryptosporidia” value (Cryptosporidia) was “inhibited”.

For `C[C@@H](Oc1ccc(Oc2ncc(Cl)cc2F)cc1)C(=O)O` [clodinafop], the “inhibition of T. gondii” value (T. gondii [2]; 1 micromolar) was “ionhibited”.

For `Oc1cc(Cl)ccc1Oc1ccc(Cl)cc1Cl` [Triclosan, 5-chloro-2-[2,4 dichloropheoxyl] phenol], the “percentage inhibition of T. gondii uracil uptake” value (T. gondii [2]; day 1, separate experiment) was 20%, the “percentage inhibition of T. gondii uracil uptake” value (T. gondii [2]; day 4, separate experiment) was 72% and the “IC50, T. gondii uracil uptake” value (T. gondii [2]; RH strain in HFF, 4 days after infection) was 62 nanograms/ml. The IC50 (T. gondii [2]; Toxoplasma gondii, Fibroblast, 96 h, read-out: IC50, T. gondii uracil uptake) was 0.062 µg/mL (≈ 0.214 µM), the death (P. berghei) was “prevented death” and the parasitemia (P. berghei) was “cleared parasitemia”. The “toxicity in P. berghei murine model” value (P. berghei) was “nontoxic”, the “toxicity to host cells / host cells uptake of thymidine” value [3] was “no toxicity” and the “toxicity to host cells / host cells uptake of thymidine” value ([3]; listed as triclosan) was “no inhibitory effect”. The IC50 (P. falciparum [1]; 48 h, strain TM91C234, 48 h, read-out: IC 50 when cultured with P Falciparum) was 1.8 µg/mL (≈ 6.22 µM), the IC50 (P. falciparum [1]; TM90C2A, 48 h, read-out: IC 50 when cultured with P Falciparum) was 1.89 µg/mL (≈ 6.53 µM) and the IC50 (P. falciparum [1]; TM90C2B, 48 h, strain TM90C2B (recrudescent isolate, atovaquone resistant), 48 h, read-out: IC 50 when cultured with P Falciparum) was 1.33 µg/mL (≈ 4.59 µM). For the same molecule, the IC50 (P. falciparum [1]; W2, strain W2, text value, read-out: IC50 against pyrimethamine resistant P. falciparum (W2)) was 0.15 µg/mL (≈ 0.518 µM), the IC50 (P. falciparum [1]; range over strains, read-out: IC50, growth and survival of P. falciparum) was 0.15 to 2 µg/mL (≈ 0.518 to 6.91 µM) and the “FAB I enzyme activity” value (P. falciparum FAB I) was “inhibited”.

Work on `CCN(CC)CCCC(C)Nc1ccnc2cc(Cl)ccc12` (stereo not shown) [Chloroquine] yielded an IC50 (P. falciparum [1]; 48 h, read-out: IC 50 when cultured with P Falciparum, strain D6 (chloroquine and pyrimethamine susceptible), 48 h) of 0.0038 µg/mL (≈ 0.0119 µM), an IC50 (P. falciparum [1]; [6]) of 0.0461 µg/mL (≈ 0.144 µM) and an IC50 (P. falciparum [1]; [7]) of 0.162 µg/mL (≈ 0.508 µM). The IC50 (P. falciparum [1]; [8]) was 0.0573 µg/mL (≈ 0.179 µM), the IC50 (P. falciparum [1]; [9]) was 0.0827 µg/mL (≈ 0.259 µM) and the IC50 (P. falciparum [1]; W2, read-out: IC50 against pyrimethamine resistant P. falciparum (W2), strain W2, text value) was 0.16 µg/mL (≈ 0.5 µM).

For `C=C/C(C)=C/[C@@]1(C)SC(=O)C(C)=C1O` [thiolactomycin], the “growth of T. gondii in vitro” value (T. gondii [4]) is given as “restrict the growth”.

For `O=C(O)CNCP(=O)(O)O` [NPMG], the “EPSP synthase enzyme activity” value (EPSP synthase) was “inhibition”, the “uptake of tritiated uracil by tachyzoites” value (T. gondii [2]; RH strain) was “inhibited” and the “effect on Cryptosporidia” value (Cryptosporidia) was “inhibitory effects”. The “in vitro growth of asexual erythrocytic forms” value (P. falciparum [1]; P. falciparum) was “inhibition”.

With `NC1C=CC=C(C(=O)O)C1` (racemic) [gabaculine] the “effect on Cryptosporidia” value (Cryptosporidia) was “inhibitory effects”.

For `C/C=C/C/C=C/CCC(=O)[C@H]1O[C@H]1C(N)=O`, the synergy in vitro (P. falciparum [5]) was “Synergy”.

For `O=C(NO)c1ccccc1O` [SHAM], the “effect on Cryptosporidia” value (Cryptosporidia) was “inhibitory effects”.
